Assay results reported in patent publication US12479804B2, “Herbicidal compounds” (SYNGENTA CROP PROTECTION AG, priority 2019, dated 2025).

Legend:
Test in all cases: Glasshouse herbicidal test, pre- and post-emergence, percentage damage to the plant
Type in all cases: in vivo
Setaria faberi (SETFA) = conditions: 250 g/h, evaluated after 13 days; for SETFA POST percentage damage caused to the plant (five-point scale): post-emergence; for SETFA PRE percentage damage caused to the plant (five-point scale): pre-emergence
Method: (§1) Seeds of a variety of test species are sown in standard soil in pots (Lolium perenne (LOLPE), Setaria faberi (SETFA), Alopecurus myosuroides (ALOMY), Echinochloa crus-galli (ECHCG), Avena fatua (AVEFA)). After cultivation for one day (pre-emergence) or after 8 days cultivation (post-emergence) under controlled conditions in a glasshouse (at 24/16° C., day/night; 14 hours light; 65% humidity), the plants are sprayed with an aqueous spray solution derived from the formulation of the technical active ingredient in acetone/water (50:50) solution containing 0.5% Tween 20 (polyoxyethelyene sorbitan monolaurate, CAS RN 9005-64-5). Compounds are applied at 250 g/h. The test plants are then grown in a glasshouse under controlled conditions in a glasshouse (at 24/16° C., day/night; 14 hours light; 65% humidity) and watered twice daily. After 13 days for pre and post-emergence, the test is evaluated for the percentage damage caused to the plant. The biological activities are shown in the following table on a five-point scale (5=80-100%; 4=60-79%; 3=40-59%; 2=20-39%; 1=0-19%).

Avena fatua (AVEFA) = conditions: 250 g/h, evaluated after 13 days; for AVEFA POST percentage damage caused to the plant (five-point scale): post-emergence; for AVEFA PRE percentage damage caused to the plant (five-point scale): pre-emergence
Method: as §1

[1] = tested on: Echinochloa crus-galli (ECHCG); conditions: 250 g/h, evaluated after 13 days; for ECHCG POST percentage damage caused to the plant (five-point scale): post-emergence; for ECHCG PRE percentage damage caused to the plant (five-point scale): pre-emergence
Method: as §1

Lolium perenne (LOLPE) = conditions: 250 g/h, evaluated after 13 days; for LOLPE POST percentage damage caused to the plant (five-point scale): post-emergence; for LOLPE PRE percentage damage caused to the plant (five-point scale): pre-emergence
Method: as §1

[2] = tested on: Alopecurus myosuroides (ALOMY); conditions: 250 g/h, evaluated after 13 days; for ALOMY POST percentage damage caused to the plant (five-point scale): post-emergence; for ALOMY PRE percentage damage caused to the plant (five-point scale): pre-emergence
Method: as §1

| SMILES | SETFA POST percentage damage caused to the plant (five-point scale) (Setaria faberi (SETFA)) | SETFA PRE percentage damage caused to the plant (five-point scale) (Setaria faberi (SETFA)) | AVEFA POST percentage damage caused to the plant (five-point scale) (Avena fatua (AVEFA)) | AVEFA PRE percentage damage caused to the plant (five-point scale) (Avena fatua (AVEFA)) | ECHCG POST percentage damage caused to the plant (five-point scale) [1] | ECHCG PRE percentage damage caused to the plant (five-point scale) [1] | LOLPE POST percentage damage caused to the plant (five-point scale) (Lolium perenne (LOLPE)) | LOLPE PRE percentage damage caused to the plant (five-point scale) (Lolium perenne (LOLPE)) | ALOMY POST percentage damage caused to the plant (five-point scale) [2] | ALOMY PRE percentage damage caused to the plant (five-point scale) [2] |
| --- | --- | --- | --- | --- | --- | --- | --- | --- | --- | --- |
| CC#Cc1cc(C)c(C2C(=O)CC3(CCNC(=O)C3)CC2=O)c(C)c1 (stereo not drawn) [Compound A2] | 5 (5=80-100%) | 5 (5=80-100%) | 4 (4=60-79%) | 3 (3=40-59%) | 5 (5=80-100%) | 3 (3=40-59%) | 4 (4=60-79%) | 4 (4=60-79%) | 3 (3=40-59%) | 3 (3=40-59%) |
| CC#Cc1cc(C)c(C2C(=O)CC3(CCCN(C(C)=O)C3)CC2=O)c(C)c1 (stereo not drawn) [Compound A3] | 5 (5=80-100%) | 3 (3=40-59%) | 5 (5=80-100%) | 3 (3=40-59%) | 5 (5=80-100%) | 2 (2=20-39%) | 5 (5=80-100%) | 2 (2=20-39%) | 5 (5=80-100%) | 2 (2=20-39%) |
| CC#Cc1cc(C)c(C2C(=O)CC3(CCN(C(C)=O)C3)CC2=O)c(C)c1 (stereo not drawn) [Compound A4] | 5 (5=80-100%) | 5 (5=80-100%) | 5 (5=80-100%) | 5 (5=80-100%) | 5 (5=80-100%) | 5 (5=80-100%) | 5 (5=80-100%) | 5 (5=80-100%) | 5 (5=80-100%) | 5 (5=80-100%) |
| CC#Cc1cc(C)c(C2C(=O)CC3(CCN(C)C(=O)C3=O)CC2=O)c(C)c1 (stereo not drawn) [Compound A5] | 5 (5=80-100%) | 5 (5=80-100%) | 4 (4=60-79%) | 3 (3=40-59%) | 5 (5=80-100%) | 5 (5=80-100%) | 5 (5=80-100%) | 5 (5=80-100%) | 5 (5=80-100%) | 3 (3=40-59%) |
| CC#Cc1cc(C)c(C2C(=O)CC3(CCCN(C(=O)OC(C)(C)C)CC3)CC2=O)c(C)c1 (stereo not drawn) [Compound A6] | 5 (5=80-100%) | 5 (5=80-100%) | 4 (4=60-79%) | 4 (4=60-79%) | 5 (5=80-100%) | 5 (5=80-100%) | 5 (5=80-100%) | 5 (5=80-100%) | 5 (5=80-100%) | 4 (4=60-79%) |
| CC#Cc1cc(C)c(C2C(=O)CC3(CCN(S(=O)(=O)CC)C3)CC2=O)c(C)c1 (stereo not drawn) [Compound A7] | 5 (5=80-100%) | 5 (5=80-100%) | 5 (5=80-100%) | 5 (5=80-100%) | 5 (5=80-100%) | 5 (5=80-100%) | 5 (5=80-100%) | 5 (5=80-100%) | 5 (5=80-100%) | 5 (5=80-100%) |
| CC#Cc1cc(C)c(C2C(=O)CC3(CCCN(S(=O)(=O)CC)CC3)CC2=O)c(C)c1 (stereo not drawn) [Compound A8] | 5 (5=80-100%) | 5 (5=80-100%) | 5 (5=80-100%) | 5 (5=80-100%) | 5 (5=80-100%) | 5 (5=80-100%) | 5 (5=80-100%) | 5 (5=80-100%) | 5 (5=80-100%) | 5 (5=80-100%) |
| CC#Cc1cc(C)c(C2C(=O)CC3(CCCN(C(C)=O)CC3)CC2=O)c(C)c1 (stereo not drawn) [Compound A9] | 5 (5=80-100%) | 5 (5=80-100%) | 5 (5=80-100%) | 5 (5=80-100%) | 5 (5=80-100%) | 5 (5=80-100%) | 5 (5=80-100%) | 5 (5=80-100%) | 5 (5=80-100%) | 5 (5=80-100%) |
| CC#Cc1cc(C)c(C2C(=O)CC3(CCC(=O)NC3)CC2=O)c(C)c1 (stereo not drawn) [Compound A10] | 5 (5=80-100%) | 5 (5=80-100%) | 5 (5=80-100%) | 5 (5=80-100%) | 5 (5=80-100%) | 5 (5=80-100%) | 5 (5=80-100%) | 5 (5=80-100%) | 5 (5=80-100%) | 5 (5=80-100%) |
| CC#Cc1cc(C)c(C2C(=O)CC3(CCC(=O)N(C(C)=O)C3)CC2=O)c(C)c1 (stereo not drawn) [Compound A11] | 5 (5=80-100%) | 5 (5=80-100%) | 5 (5=80-100%) | 3 (3=40-59%) | 5 (5=80-100%) | 5 (5=80-100%) | 5 (5=80-100%) | 5 (5=80-100%) | 5 (5=80-100%) | 5 (5=80-100%) |
| CC#Cc1cc(C)c(C2C(=O)CC3(CCC(=O)N(CC(=O)OC)C3)CC2=O)c(C)c1 (stereo not drawn) [Compound A12] | 5 (5=80-100%) | 5 (5=80-100%) | 5 (5=80-100%) | 3 (3=40-59%) | 5 (5=80-100%) | 5 (5=80-100%) | 5 (5=80-100%) | 5 (5=80-100%) | 2 (2=20-39%) | 5 (5=80-100%) |
| CC#Cc1cc(C)c(C2C(=O)CC3(CCN4C(=O)CCCC4C3)CC2=O)c(C)c1 (stereo not drawn) [Compound A13] | 5 (5=80-100%) | 5 (5=80-100%) | 5 (5=80-100%) | 5 (5=80-100%) | 5 (5=80-100%) | 5 (5=80-100%) | 5 (5=80-100%) | 5 (5=80-100%) | 5 (5=80-100%) | 5 (5=80-100%) |
